Values quoted from earlier work, collected in PMC7033111, “Rational design of novel benzisoxazole derivatives with acetylcholinesterase inhibitory and serotoninergic 5-HT4 receptors activities for the treatment of Alzheimer’s disease” (Scientific Reports, 2020).

Legend:
5-HT4R = conditions: cited from earlier work
[1] = design: method as in PMID 25157130; conditions: mice; cited from earlier work
h5-HT4eR = conditions: donecopride reference value; read-out: 5-HT4R Ki; cited from earlier work
hAChE = test system: hAChE; design: method as in PMID 25157130; conditions: donecopride reference value; cited from earlier work

SMILES: COc1cc(N)c(Cl)cc1C(=O)CCC1CCN(CC2CCCCC2)CC1 [donecopride]
- % of control agonist response (5-HT4R) (5-HT4R): 48%
- in vivo effects, object recognition test [1]: improvement of memory performances
- Ki (h5-HT4eR): 0.0085 ± 0.0003 µM
- IC50 (hAChE): 0.016 ± 0.005 µM
